Molecular target: Tyrosine-protein kinase JAK2 [Y1007F,Y1008F] (Homo sapiens, UniProt O60674, Y1007F/Y1008F)
Assay: JAK2 Binding Assay
Experimental: Streptavidin-coated magnetic beads were treated with biotinylated small molecule ligands for 30 minutes at room temperature to generate affinity resins for kinase assays. The liganded beads were blocked with excess biotin and washed with blocking buffer (SeaBlock (Pierce), 1% BSA, 0.05% Tween 20, 1 mmol/L DTT) to remove unbound ligand and to reduce nonspecific phage binding. Binding reactions were assembled by combining kinases, liganded affinity beads, and test compounds in 1× binding buffer (1×PBS, 0.05% Tween 20, 0.1% BSA, 1 mmol/L DTT). Test compound was prepared as 111× stocks in 100% DMSO and directly diluted into the assay wells. All reactions were performed in polypropylene 384-well plates in a final volume of 0.02 mL. The assay plates were incubated at room temperature with shaking for 1 hour and the affinity beads were washed with wash buffer (1×PBS, 0.05% Tween 20). The beads were then re-suspended in elution buffer (1×PBS, 0.05% Tween 20, 0.5 μmol/L non-biotinylated affinity ligand) and incubated at room temperature with shaking for 30 minutes. The kinase concentration in the eluate was measured by qPCR.

Chain of Tyrosine-protein kinase JAK2 [Y1007F,Y1008F] (O60674 whole entry Y1007F/Y1008F): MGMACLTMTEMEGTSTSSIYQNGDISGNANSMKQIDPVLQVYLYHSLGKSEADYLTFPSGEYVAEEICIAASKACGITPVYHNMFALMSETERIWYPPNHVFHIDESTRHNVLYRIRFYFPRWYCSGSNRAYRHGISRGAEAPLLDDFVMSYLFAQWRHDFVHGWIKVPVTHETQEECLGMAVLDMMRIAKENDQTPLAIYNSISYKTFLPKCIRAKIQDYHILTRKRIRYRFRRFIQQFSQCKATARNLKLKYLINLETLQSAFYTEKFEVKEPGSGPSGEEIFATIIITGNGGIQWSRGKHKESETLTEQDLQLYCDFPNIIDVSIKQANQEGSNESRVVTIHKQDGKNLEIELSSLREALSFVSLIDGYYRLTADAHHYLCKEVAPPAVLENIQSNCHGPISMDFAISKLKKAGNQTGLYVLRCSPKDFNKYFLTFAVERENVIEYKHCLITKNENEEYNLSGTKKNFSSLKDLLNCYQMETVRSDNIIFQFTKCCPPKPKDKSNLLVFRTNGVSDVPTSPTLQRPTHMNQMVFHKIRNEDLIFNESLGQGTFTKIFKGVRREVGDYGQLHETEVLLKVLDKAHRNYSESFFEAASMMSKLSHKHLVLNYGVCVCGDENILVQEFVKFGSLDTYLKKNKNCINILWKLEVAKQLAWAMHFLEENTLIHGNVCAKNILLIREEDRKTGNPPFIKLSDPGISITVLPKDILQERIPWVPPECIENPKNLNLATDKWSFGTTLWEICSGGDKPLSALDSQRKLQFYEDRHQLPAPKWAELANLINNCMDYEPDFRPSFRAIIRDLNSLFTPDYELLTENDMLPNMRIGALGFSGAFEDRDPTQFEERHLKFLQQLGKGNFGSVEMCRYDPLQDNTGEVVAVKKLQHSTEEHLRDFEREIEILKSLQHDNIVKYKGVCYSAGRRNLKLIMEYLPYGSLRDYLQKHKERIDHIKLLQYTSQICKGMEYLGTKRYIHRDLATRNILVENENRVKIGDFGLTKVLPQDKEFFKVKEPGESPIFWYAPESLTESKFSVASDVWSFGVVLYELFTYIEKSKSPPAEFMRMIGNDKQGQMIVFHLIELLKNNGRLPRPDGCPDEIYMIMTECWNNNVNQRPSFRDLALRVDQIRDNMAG

CC(=O)Nc1cc(Oc2ccc3nc(Nc4cc(C(C)(C)C)n(C[C@H]5C[C@@H](O)C5)n4)n(C)c3c2)ccn1 [US11691963, Example I-28]
Kd: < 10 nM

CC(=O)Nc1cc(Oc2ccc3nc(Nc4cc5n(n4)CCCC5(C)C)n(C)c3n2)ccn1 [US11691963, Example I-42]
Kd: < 10 nM

CC(=O)Nc1cc(Oc2cnc3nc(Nc4cc(C(C)(C)C)n([C@H]5C[C@H](O)C5)n4)n(C)c3c2)ccn1 [US11691963, Example I-115]
Kd: < 10 nM

CC(=O)Nc1cc(Oc2cnc3nc(Nc4cc(C(C)(C)C)n([C@H]5C[C@@H](O)C5)n4)n(C)c3c2)ccn1 [US11691963, Example I-116]
Kd: < 10 nM

— BindingDB's records for patent US11691963 (Ajax Therapeutics, 2023)
